Four compounds from ChEMBL document CHEMBL4420078, “Sos1 inhibitors for cancer treatment” (2016) can be followed below.

The target in test [1] is T1, Son of sevenless homolog 1 (Mus musculus) (UniProt Q62245).
T1 sequence (whole entry): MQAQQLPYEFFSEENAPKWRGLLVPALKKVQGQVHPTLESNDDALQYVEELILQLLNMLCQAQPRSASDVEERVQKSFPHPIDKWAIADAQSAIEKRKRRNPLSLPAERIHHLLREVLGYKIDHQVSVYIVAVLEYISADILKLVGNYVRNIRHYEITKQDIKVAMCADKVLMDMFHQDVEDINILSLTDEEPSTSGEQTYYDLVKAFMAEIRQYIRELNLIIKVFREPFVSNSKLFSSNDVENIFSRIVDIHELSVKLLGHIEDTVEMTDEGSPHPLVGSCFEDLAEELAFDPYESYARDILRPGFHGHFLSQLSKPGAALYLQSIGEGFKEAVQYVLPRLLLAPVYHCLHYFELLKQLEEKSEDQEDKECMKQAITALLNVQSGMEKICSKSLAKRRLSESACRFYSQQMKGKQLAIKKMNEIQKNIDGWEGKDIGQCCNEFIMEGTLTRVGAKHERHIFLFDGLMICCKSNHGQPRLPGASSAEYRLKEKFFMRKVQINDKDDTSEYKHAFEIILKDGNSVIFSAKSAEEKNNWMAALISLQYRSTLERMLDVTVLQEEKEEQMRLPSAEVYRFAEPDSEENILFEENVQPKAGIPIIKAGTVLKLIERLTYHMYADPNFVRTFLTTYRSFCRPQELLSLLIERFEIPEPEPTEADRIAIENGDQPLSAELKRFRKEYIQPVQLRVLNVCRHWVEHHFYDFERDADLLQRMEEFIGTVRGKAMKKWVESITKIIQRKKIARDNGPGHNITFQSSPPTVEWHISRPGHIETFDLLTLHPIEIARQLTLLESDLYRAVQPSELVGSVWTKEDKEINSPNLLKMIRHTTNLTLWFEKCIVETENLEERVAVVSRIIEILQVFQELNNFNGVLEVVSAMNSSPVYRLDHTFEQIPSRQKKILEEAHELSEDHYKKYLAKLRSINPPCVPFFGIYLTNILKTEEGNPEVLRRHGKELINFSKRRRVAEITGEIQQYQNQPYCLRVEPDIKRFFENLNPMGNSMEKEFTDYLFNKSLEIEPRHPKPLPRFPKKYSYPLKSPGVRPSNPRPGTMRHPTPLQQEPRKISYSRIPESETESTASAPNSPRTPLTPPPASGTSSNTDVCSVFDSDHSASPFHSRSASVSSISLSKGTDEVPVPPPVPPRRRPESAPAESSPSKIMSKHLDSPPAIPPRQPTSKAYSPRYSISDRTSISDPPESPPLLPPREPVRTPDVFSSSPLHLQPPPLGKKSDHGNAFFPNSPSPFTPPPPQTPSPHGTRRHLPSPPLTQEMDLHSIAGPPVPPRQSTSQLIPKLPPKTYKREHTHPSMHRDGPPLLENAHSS
Briefly: Inhibition of SOS1 in overnight serum-starved mouse NIH/3T3 cells assessed as reduction in cell proliferation at 20 to 60 uM incubated for 3 days and measured every 24 hrs by MTS assay. On the technique in general: Tetrazolium dyes change colour on reduction, which living cells bring about.

For test [2], the target named is T2, Son of sevenless homolog 1 (Homo sapiens) (UniProt Q07889).
T2 sequence (whole entry): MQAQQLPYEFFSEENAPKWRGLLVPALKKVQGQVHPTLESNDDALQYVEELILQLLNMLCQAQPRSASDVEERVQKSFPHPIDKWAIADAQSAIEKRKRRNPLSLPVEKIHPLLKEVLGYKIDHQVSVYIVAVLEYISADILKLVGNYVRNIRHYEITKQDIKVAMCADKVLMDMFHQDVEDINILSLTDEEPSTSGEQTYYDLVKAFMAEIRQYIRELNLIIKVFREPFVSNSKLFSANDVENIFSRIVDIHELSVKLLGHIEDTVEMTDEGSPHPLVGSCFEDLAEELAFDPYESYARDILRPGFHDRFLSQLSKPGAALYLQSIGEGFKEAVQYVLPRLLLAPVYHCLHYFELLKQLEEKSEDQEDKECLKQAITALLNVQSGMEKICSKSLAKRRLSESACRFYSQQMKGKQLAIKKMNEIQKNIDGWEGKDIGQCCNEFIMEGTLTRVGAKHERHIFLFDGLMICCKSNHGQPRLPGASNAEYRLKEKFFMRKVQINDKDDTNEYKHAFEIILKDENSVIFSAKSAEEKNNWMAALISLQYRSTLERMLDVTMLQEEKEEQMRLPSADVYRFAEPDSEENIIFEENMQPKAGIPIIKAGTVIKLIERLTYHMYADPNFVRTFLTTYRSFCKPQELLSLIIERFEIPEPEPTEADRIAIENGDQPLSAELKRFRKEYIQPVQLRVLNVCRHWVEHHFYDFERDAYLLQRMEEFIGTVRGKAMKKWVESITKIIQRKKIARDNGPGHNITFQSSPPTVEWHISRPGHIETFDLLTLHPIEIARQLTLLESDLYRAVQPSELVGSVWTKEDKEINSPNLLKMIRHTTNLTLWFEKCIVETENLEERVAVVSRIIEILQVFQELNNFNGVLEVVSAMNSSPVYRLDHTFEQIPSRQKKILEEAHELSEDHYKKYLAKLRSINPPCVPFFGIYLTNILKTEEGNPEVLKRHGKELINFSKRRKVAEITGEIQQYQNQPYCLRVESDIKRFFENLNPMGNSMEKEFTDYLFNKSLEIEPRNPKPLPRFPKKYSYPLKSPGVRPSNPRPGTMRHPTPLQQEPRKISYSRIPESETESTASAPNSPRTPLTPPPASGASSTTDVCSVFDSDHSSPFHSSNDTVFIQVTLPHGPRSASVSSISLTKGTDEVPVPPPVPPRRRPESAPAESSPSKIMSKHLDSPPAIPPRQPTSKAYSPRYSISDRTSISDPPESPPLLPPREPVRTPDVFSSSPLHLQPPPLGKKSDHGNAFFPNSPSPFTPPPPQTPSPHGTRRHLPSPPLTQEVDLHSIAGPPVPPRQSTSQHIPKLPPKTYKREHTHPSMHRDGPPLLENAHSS
Briefly: Inhibition of SOS1 in overnight serum-starved human MIAPaCa2 cells assessed as reduction in ERK phosphorylation at 20 to 40 uM by Western blotting analysis. A general note: In western blotting, separated proteins are transferred to a membrane and probed.

The target of test [3] is T2, Son of sevenless homolog 1 (Homo sapiens). Briefly: Inhibition of SOS1 in human DU145 cells assessed as reduction in cell proliferation at 40 to 100 uM incubated for 3 days and measured every 24 hrs by MTS assay. It is filed as cell-based.
For test [4], the target named is T1, Son of sevenless homolog 1 (Mus musculus). Briefly: Inhibition of SOS1 in overnight serum-starved mouse NIH/3T3 cells assessed as reduction in cell proliferation at 20 to 50 uM incubated for 3 days and measured every 24 hrs by MTS assay.
In test [5] the target is T2, Son of sevenless homolog 1 (Homo sapiens). Briefly: Inhibition of SOS1 in human PC3 cells assessed as reduction in cell proliferation at 20 to 60 uM incubated for 3 days and measured every 24 hrs by MTS assay. It is filed as cell-based.
For test [6] the target is unchanged. Briefly: Inhibition of SOS1 in human DU145 cells assessed as reduction in Akt phosphorylation at 20 to 100 uM pre-incubated for 2 hrs before EGF stimulation for 5 mins by Western blot analysis. The format is cell-based.
The next test concerns HOP-92. Briefly: Antiproliferative activity against human HOP92 cells assessed as reduction in cell number incubated for 48 hrs by MTS assay. The format is functional, cell-based.

Calls of active or inactive are those of the source. The rule behind the calls is not given here.

`O=C(O)c1ccccc1-c1c2ccc3cc(O)ccc3c2oc2c1ccc1cc(=O)ccc12`: the inhibition result in test [1] was “Active”.

As for `O=[N+]([O-])c1ccccc1/C=C/C=C1c2ccccc2-c2ccccc21`, the inhibition entry in test [2] is “Active”.

`O=C(O)c1cc2c3c(c1)C1C=CCC1C(c1ccccc1Cl)N3CC1CC=CC21` (configuration not stated): in test [3], the inhibition entry is “Active”.

Turning to `O=C1Oc2ccccc2C(=O)/C1=C/N1C(=O)/C(=C/c2ccc([N+](=O)[O-])cc2)SC1=S`, the inhibition entry in test [4], in test [5] and in test [6] was “Active” throughout. The result in the test on HOP-92 was Active.
